Test results taken from the supplement of paper PMC10307832.

Experiments:
Test in all cases: relative viability (nuclei count vs DMSO), 5 days (fraction); higher = more cells survive
[1] = compound: Cc1cc([C@@H](C)Nc2ccccc2C(=O)O)c2nc(N3CCOCC3)cc(=O)n2c1 [AZD6482] + CCNC(=O)c1noc(-c2cc(C(C)C)c(O)cc2O)c1-c1ccc(CN2CCOCC2)cc1 [Luminespib] (partner 0.01 µM)
Method in brief: (§1)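 A single step with final 0.05% Triton X-100, 1% formaldehyde and 1 ug/ml Hoechst fixed the cells and stained nuclei 5 days after treatment. Lung cancer cell lines in 1536-well plates had been treated by pin tool the day after seeding with one drug alone or a fixed anchor-drug dose plus five library-drug doses (not always all listed) in √10 steps, and nuclei were counted on 4× images. Relative viability is the ratio of nuclei in treated wells to nuclei in vehicle wells, taken as the median of duplicate plates.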

[2] = compound: Cc1cc([C@@H](C)Nc2ccccc2C(=O)O)c2nc(N3CCOCC3)cc(=O)n2c1 [AZD6482] + N=C(N)NC(=N)NCCc1ccccc1 [Phenformin] (partner 250 µM)
Method in brief: as §1

[3] = compound: Cc1cc([C@@H](C)Nc2ccccc2C(=O)O)c2nc(N3CCOCC3)cc(=O)n2c1 [AZD6482] + CC(=O)c1c(C)c2cnc(Nc3ccc(N4CCNCC4)cn3)nc2n(C2CCCC2)c1=O [Palbociclib] (partner 0.5 µM)
Method in brief: as §1

[4] = compound: COc1cc2nc(N3CCCN(C)CC3)nc(NC3CCN(Cc4ccccc4)CC3)c2cc1OC + CS(=O)(=O)CCNCc1ccc(-c2ccc3ncnc(Nc4ccc(OCc5cccc(F)c5)c(Cl)c4)c3c2)o1 [Lapatinib] (partner 2 µM)
Method in brief: as §1

Cell Line	relative viability ([1]; first compound 0.08 µM)	relative viability ([1]; first compound 0.253 µM)	relative viability ([1]; first compound 0.8 µM)	relative viability ([1]; first compound 2.53 µM)	relative viability ([1]; first compound 8 µM)	relative viability ([2]; first compound 0.08 µM)	relative viability ([2]; first compound 0.253 µM)	relative viability ([2]; first compound 0.8 µM)	relative viability ([2]; first compound 2.53 µM)	relative viability ([2]; first compound 8 µM)	relative viability ([3]; first compound 0.08 µM)	relative viability ([3]; first compound 0.253 µM)	relative viability ([3]; first compound 0.8 µM)	relative viability ([3]; first compound 8 µM)	relative viability ([4]; first compound 0.2 µM)	relative viability ([4]; first compound 0.6325 µM)	relative viability ([4]; first compound 2 µM)	relative viability ([4]; first compound 6.325 µM)	relative viability ([3]; first compound 2.53 µM)
NCI-H727	0.245	0.348	0.786	0.292	0.345	0.445	0.683	0.465	0.488	0.315	0.63	0.63	0.811	0.532	0.769	0.901	0.838	0.543	
NCI-H2087	0.183	0.161	0.213		0.16	0.44	0.442	0.474		0.385	0.235	0.223	0.209	0.207	1.18	0.744	1.08	0.964	0.185
BEN	0.399	0.193	0.522	0.177	0.334	0.349	0.281	0.24	0.277	0.182	0.442	0.452	0.446	0.466	0.721	0.953	0.94	0.721	0.449
EKVX	0.778	0.748	0.74	0.625	0.557	0.212	0.22	0.233	0.171	0.208	0.283	0.325	0.342	0.298	0.194	0.218	0.232	0.223	0.279
LXF-289	0.688	0.655	0.724	0.409	0.379	0.491	0.471	0.51	0.452	0.307	0.565	0.605	0.634	0.55	0.854	0.878	0.886	0.907	0.631
ABC-1	0.668	0.521	0.438	0.55	0.461	0.212	0.237	0.283	0.229	0.205	0.603	0.79	0.664	0.544	1.09	1.14	1.25	1.05	0.662
NCI-H650	0.657		0.898	0.647	0.509	0.467		0.431	0.292	0.31	0.364	0.291	0.276	0.271	0.731	0.839	1.3	0.692	0.237
NCI-H1650	0.182	0.189	0.204	0.186	0.194	0.333	0.369	0.373	0.233	0.297	0.312	0.271	0.269	0.288	0.75	0.813	0.915	0.579	0.267
NCI-H2085	0.36	0.194	0.22	0.22	0.346	0.483	0.448	0.406	0.318	0.29	0.408	0.379	0.336	0.343	0.698	0.772	0.798	0.605	0.273
NCI-H1793	0.151	0.164	0.165	0.134	0.167	0.338	0.311	0.24	0.191	0.15	0.243	0.215	0.271	0.225	0.75	0.742	0.855	0.664	0.215
LC-2-ad	0.976	0.954	1.28	0.914	1.12	0.615	0.497	0.6	0.442	0.471	0.478	0.539	0.537	0.399	0.853	0.992	1.01	0.898	0.521
COR-L 105	0.75	0.867	1.04	0.46	0.663	0.515	0.443	0.446	0.409	0.299	0.419	0.434	0.434	0.376	0.395	0.424	0.322	0.278	0.492
NCI-H1355	0.53	0.556	0.702	0.422	0.52	0.41	0.386	0.414	0.308	0.329	0.294	0.374	0.32	0.286	1.01	0.992	1.05	0.951	0.279
H3255	0.986	0.761	0.806	0.529	0.799	0.356	0.333	0.386	0.343	0.34	0.324	0.33	0.306	0.339	0.235	0.273	0.258	0.165	0.339
NCI-H1993	0.509	0.711	0.737	0.571	0.616	0.49	0.488	0.471	0.524	0.449	0.503	0.579	0.638	0.484	0.684	0.907	0.834	0.751	0.495
NCI-H1734	0.194	0.167	0.164	0.163	0.205	0.386	0.333	0.465	0.229	0.226	0.301	0.333	0.346	0.272	1.11	0.977	1.06	0.76	0.298
HOP-62	0.889	1.01	1.11	0.793	1.04	0.679	0.733	0.745	0.577	0.707	0.504	0.525	0.486	0.407	1.04	1.05	1.07	1	0.457

Cell Line	relative viability ([1]; first compound 0.08 µM)	relative viability ([1]; first compound 0.253 µM)	relative viability ([1]; first compound 0.8 µM)	relative viability ([1]; first compound 2.53 µM)	relative viability ([1]; first compound 8 µM)	relative viability ([2]; first compound 0.08 µM)	relative viability ([2]; first compound 0.253 µM)	relative viability ([2]; first compound 0.8 µM)	relative viability ([2]; first compound 2.53 µM)	relative viability ([2]; first compound 8 µM)	relative viability ([3]; first compound 0.08 µM)	relative viability ([3]; first compound 0.253 µM)	relative viability ([3]; first compound 0.8 µM)	relative viability ([3]; first compound 8 µM)	relative viability ([4]; first compound 0.2 µM)	relative viability ([4]; first compound 0.6325 µM)	relative viability ([4]; first compound 2 µM)	relative viability ([4]; first compound 6.325 µM)	relative viability ([3]; first compound 2.53 µM)
LOU-NH91	0.326	0.293	0.343	0.27	0.335	0.546	0.718	0.737	0.46	0.556	0.537	0.557	0.552	0.542	0.803	0.812	0.731	0.693	0.49
NCI-H2228		0.119	0.118	0.115	0.169		0.315	0.324	0.309	0.284	0.374	0.565	0.682	0.679	0.959	1.34	1.23	0.757	0.653
PC-14	0.156	0.16	0.145		0.142	0.488	0.438	0.59		0.534	0.447	0.524	0.578	0.519	0.334	0.339	0.372	0.308	0.503
NCI-H1437	1.16	1.2	1.14	0.969	1.15	0.268	0.287	0.262	0.223	0.261	0.353	0.319	0.36	0.24	0.754	0.888	0.966	0.698	0.316
NCI-H460	0.0355	0.0327	0.0426	0.0315	0.0378	0.492	0.512	0.535	0.326	0.182	0.124	0.138	0.269	0.129	0.9	0.979	0.902	0.487	0.135
NCI-H1666	1	0.942	1.06	0.876	1.21	0.532	0.548	0.582	0.525	0.577	0.637	0.576	0.722	0.681	0.508	0.746	0.475	0.332	0.638
NCI-H1651	0.779	0.805	0.773	0.812	0.753	0.281	0.296	0.33	0.253	0.242	0.485	0.493	0.508	0.496	0.785	0.807	0.834	0.855	0.486
NCI-H1755	0.24	0.488	0.411	0.322	0.218	0.525	0.576	0.542	0.427	0.41	0.425	0.416	0.443	0.379	1.03	1.02	1.06	0.927	0.444
NCI-H661	0.959	0.945	0.968	0.635	0.918	0.285	0.274	0.297	0.245	0.216	0.41	0.43	0.41	0.364	0.568	0.503	0.68	0.563	0.387
HARA	0.58	0.636	0.57	0.627	0.419	0.376	0.395	0.486	0.399	0.168	0.182	0.199	0.368	0.171	0.793	0.86	0.823	0.804	0.247
NCI-H23	0.235		0.249	0.207	0.201	0.789	0.785	0.84	0.628	0.658	0.471	0.421	0.487	0.325	1.02	1.03	1.37	1.02	0.396
LCLC-97TM1	0.77	0.803	0.66	0.327	0.282	0.443	0.44	0.39	0.363	0.308	0.167	0.225	0.188	0.172	0.875		1.17	0.836	
EPLC-272H	0.347	0.164	0.21	0.179	0.256	0.311	0.241	0.343	0.24	0.154	0.297	0.292	0.328	0.244	0.947	1.1	1.03	0.938	0.332
NCI-H1915	0.697	0.698	0.824	0.696	0.778	0.379	0.334	0.384	0.326	0.357	0.478	0.524	0.529	0.521	1.01	0.875	1.02	0.956	0.49
NCI-H2405	0.367		0.612	0.261	0.385	0.274		0.346	0.309	0.274	0.378	0.495	0.526	0.413	1.08	1.08	1.2	0.885	0.455
NCI-H322M	0.776	0.472	0.783	0.465	0.496	0.705	0.673	0.712	0.414	0.537	0.447	0.486	0.476	0.39	0.573	0.642	0.621	0.605	0.424
NCI-H2170	0.712	0.508	0.697	0.485	0.521	0.418	0.432	0.421	0.386	0.36	0.36	0.387	0.387	0.347	0.253	0.28	0.254	0.272	0.384
